Reference: patent US5962504A, “Substituted 2-pyrrolidinone activators of PKC” (Georgetown University, priority 1998, dated 1999)

Tests used:
[1] = biological target: PKC; experiment: ability of representative compounds to activate PKC (Ki, Table 1; procedure similar to Kozikowski et al. J. Med. Chem. 1997); format: binding; settings: read-out: Ki ± SEM
[2] = test system: PKC; settings: background statement; cited from earlier work

| SMILES | Ki [1] [µM] | PKC activation, isozyme selectivity [2] |
| --- | --- | --- |
| CC(C)[C@H]1C(=O)N[C@H](CO)[C@@H]1c1ccccc1 [Compound 4a, (3R, 4S, 5S)-3-Isopropyl-4-phenyl-5-(hydroxymethyl)pyrrolidin-2-one] | 129 |  |
| CCCCCCCCCc1ccc([C@@H]2[C@@H](C(C)C)C(=O)N[C@@H]2CO)cc1 [Compound 4b, (3R, 4S, 5S)-3-Isopropyl-4-(4-nonylphenyl)-5-(hydroxymethyl)-pyrrolidin-2-one] | 2.3 ± 0.2 |  |
| CC(C)[C@H]1C(=O)N[C@H](CO)[C@@H]1c1cccc2ccccc12 [Compound 11a, (3R,4S,5S)-3-Isopropyl-4-(1-naphthyl)-5-(hydroxymethyl)pyrrolidin-2-one] | 5.5 |  |
| CCCCCC(=O)Oc1ccc([C@@H]2[C@@H](C(C)C)C(=O)N[C@@H]2CO)c2ccccc12 [Compound 11b, (3R,4S,5S)-3-Isopropyl-4-(4-hexanoyloxynaphth-1-yl)-5-(hydroxymethyl)pyrrolidin-2-one] | 0.5 ± 0.04 |  |
| CC1=C[C@H]2[C@@]3(O)[C@H](C)C[C@]4(OC(=O)Cc5ccccc5)[C@H]([C@@H]3C=C(CO)C[C@]2(O)C1=O)C4(C)C [Dpp, 12-deoxyphorbol 13-phenylacetate] |  | isozyme-selective activators of PKC |
